Where two headings read alike, the source gives them in different places.

The target in one assay is T1, KRAS wild type (Homo sapiens, UniProt P01116).
T1 construct: endogenous in A375 / HEK293
The arrangement: KRAS degradation by capillary electrophoresis (Wes) immunodetection. Conditions: 6 h, degrader.

Another assay relates to GP2d. In words: cells. Conditions: GP2d, 6 h. Also noted: pERK levels by capillary electrophoresis. The procedure:
(§1) Protein Detection by Capillary Electrophoresis Cells (50 000) were seeded the day before treatment into 96-well clear-flat bottom plates and incubated overnight (37 °C, humidified tissue culture incubator, 5% CO2). Compounds were added from DMSO stock solution using a digital dispenser and cells are incubated at 37 °C as specified (24 hours for KRAS degradation, 6 hours for determination of pERK levels). At the end of the incubation, medium was removed, cells washed with ice cold PBS, PBS removed and 50 µL lysis buffer (Meso Scale Discovery #R60TX-2) supplemented with 1:100 protease inhibitor solution, 1:100 phosphatase inhibitor I, 1:100 phosphatase inhibitor II (Meso Scale Discovery #R70AA-1), 0.5 µL/mL Benzonase (Novagen #70664-3) and 10 mM dithiothreitol added to each well. Plates with lysis buffer were immediately transferred to -80 °C freezer for at least 2 hours and then thawed on ice. Lysates were transferred to a 96 well V-bottom plate and insoluble debris was pelleted by centrifugation for 20 min. at 4 000 rpm. 40 µL of the supernatant were transferred to a fresh Eppendorf PCR plate. Analysis of protein levels was conducted using the Wes System, ProteinSimple (https://www.bio-techne.com/) as specified by the manufacturer. Briefly, Wes Master Mix (12-230 kDa WES Separation Module, 8 × 25 capillary cartridges, ProteinSimple #SM-W004) and molecular weight markers were prepared as specified in the manufacturer’s recommendations. To detect primary antibodies, anti-rabbit (Protein Simple #DM-001) or anti-mouse (Protein Simple #DM-002) detection modules were used. 7.2 µL lysate + 1.8 µL master mix were combined and heated to 95 °C for 5 min. Th

The target in another assay is KRAS^G12C (Homo sapiens, UniProt P01116, G12C). The arrangement: endogenous; KRAS degradation by capillary electrophoresis immunodetection. The note with it: read-out: DC50 24 h NCI-H358. The procedure:
as §1, with “Briefly, Wes Master Mix (12-230 kDa WES Separation Module, 8 × 25 capillary cartridges, ProteinSimple #SM-W004) and molecular weight markers were prepared as specified in the manufacturer’s recommendations. To detect primary antibodies, anti-rabbit (Protein Simple #DM-001) or anti-mouse (Protein Simple #DM-002) detection modules were used. 7.2 µL lysate + 1.8 µL master mix were combined and heated to 95 °C for 5 min. Th” left out

The target in the next assay is KRAS^G12D (Homo sapiens, UniProt P01116, G12D). Also noted: endogenous or HiBiT-tagged in cells; KRAS degradation by capillary electrophoresis (Wes) immunodetection. The note with it: GP2d; 6 h; degrader.
The target of assay [1] is T2, VCB:KRAS ternary complex partners (Homo sapiens, UniProt P01116+P40337, P01116:C118S/P01116:G12D).
T2 construct: VCB (Avi-tagged, biotinylated for SPR) plus KRAS 1-169 C118S GDP; E. coli, His6 tags removed; with Elongin-C; Elongin-B
In words: biochemical. Also noted: FP displacement of FAM-HIF-1alpha peptide from VCB, with or without saturating KRAS G12D. The note with it: FP, saturating KRAS G12D.

The target in a further assay is T3, VHL-NanoLuc (Homo sapiens, UniProt P40337).
T3 construct: VHL-NanoLuc fusion (Promega) transfected into HEK293; endogenous elongins
In words: NanoBRET VHL target engagement. It is filed as cell-based. For orientation: In BRET a luciferase serves as donor, and the signal depends on an acceptor being close.

T1 sequence (P01116 whole entry): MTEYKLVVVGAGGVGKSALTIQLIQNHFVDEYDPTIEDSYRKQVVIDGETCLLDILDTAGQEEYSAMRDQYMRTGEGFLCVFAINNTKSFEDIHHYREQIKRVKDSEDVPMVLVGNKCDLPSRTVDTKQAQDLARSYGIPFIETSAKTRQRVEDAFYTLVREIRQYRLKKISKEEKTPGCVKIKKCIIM
T2 sequence (Q15370 1-104): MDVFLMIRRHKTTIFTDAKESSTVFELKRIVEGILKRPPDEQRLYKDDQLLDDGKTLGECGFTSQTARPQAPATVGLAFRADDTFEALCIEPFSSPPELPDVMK
T2 sequence (P01116 1-169 G12D/C118S): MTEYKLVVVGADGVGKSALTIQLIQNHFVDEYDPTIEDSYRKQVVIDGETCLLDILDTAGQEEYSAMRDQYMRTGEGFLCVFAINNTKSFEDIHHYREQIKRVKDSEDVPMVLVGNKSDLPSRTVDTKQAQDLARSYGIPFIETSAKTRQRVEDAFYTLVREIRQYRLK
T2 sequence (Q15369 17-112, further chain): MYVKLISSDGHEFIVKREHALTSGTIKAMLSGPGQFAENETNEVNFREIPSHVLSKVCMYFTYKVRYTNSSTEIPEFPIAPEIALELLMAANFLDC
T2 sequence (P40337 54-213): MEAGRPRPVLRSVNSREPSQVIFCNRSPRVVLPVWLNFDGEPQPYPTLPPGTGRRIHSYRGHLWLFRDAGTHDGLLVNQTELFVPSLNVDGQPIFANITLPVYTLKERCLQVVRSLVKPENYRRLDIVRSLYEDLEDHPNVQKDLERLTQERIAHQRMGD
Sequence of KRAS^G12D (P01116 whole entry G12D): as the sequence (P01116 whole entry) above, with G12D counted along it
Sequence of KRAS^G12C (P01116 whole entry G12C): as the sequence (P01116 whole entry) above, with G12C counted along it
T3 sequence (P40337 whole entry, the tested form may be a part): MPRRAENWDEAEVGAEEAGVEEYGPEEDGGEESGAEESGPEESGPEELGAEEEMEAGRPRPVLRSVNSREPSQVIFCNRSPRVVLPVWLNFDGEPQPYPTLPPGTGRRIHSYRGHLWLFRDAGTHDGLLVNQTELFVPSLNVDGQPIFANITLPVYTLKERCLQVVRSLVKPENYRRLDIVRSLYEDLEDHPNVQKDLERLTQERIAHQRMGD
Protocol for KRAS^G12D: Protein Detection by Capillary Electrophoresis Cells (50 000) were seeded the day before treatment into 96-well clear-flat bottom plates and incubated overnight (37 °C, humidified tissue culture incubator, 5% CO2). Compounds were added from DMSO stock solution using a digital dispenser and cells are incubated at 37 °C as specified (24 hours for KRAS degradation, 6 hours for determination of pERK levels). At the end of the incubation, medium was removed, cells washed with ice cold PBS, PBS removed and 50 µL lysis buffer (Meso Scale Discovery #R60TX-2) supplemented with 1:100 protease inhibitor solution, 1:100 phosphatase inhibitor I, 1:100 phosphatase inhibitor II (Meso Scale Discovery #R70AA-1), 0.5 µL/mL Benzonase (Novagen #70664-3) and 10 mM dithiothreitol added to each well. Plates with lysis buffer were immediately transferred to -80 °C freezer for at least 2 hours and then thawed on ice. Lysates were transferred to a 96 well V-bottom plate and insoluble debris was pelleted by centrifugation for 20 min. at 4 000 rpm. 40 µL of the supernatant were transferred to a fresh Eppendorf PCR plate. Analysis of protein levels was conducted using the Wes System, ProteinSimple (https://www.bio-techne.com/) as specified by the manufacturer. […]

The DC50 is the concentration at which degradation of the target reaches its halfway point. Broadly, the IC50 is the midpoint of a concentration-inhibition curve. Read a high IC50 as weaker potency. `Cc1ncsc1-c1ccc(CNC(=O)[C@@H]2C[C@@H](O)CN2C(=O)[C@@H](c2cc(OCCCCN3CCCN(c4nccc(-c5noc([C@@]6(C)CCCc7sc(N)c(C#N)c76)n5)n4)[C@@H](C)C3)no2)C(C)C)cc1` [compound 4]: the DC50 at KRAS wild type (A375) was determined as 0.0367 µM; on KRAS wild type (HEK293), 0.0128 µM; on KRAS^G12C, 0.0251 µM; on KRAS^G12D, 0.0073 µM. Moreover, half-maximal inhibition in the assay on GP2d (IC50) was put at 0.0031 µM.
The Kd is a measure of binding affinity in units of concentration. On to `Cc1ncsc1-c1ccc(CNC(=O)[C@@H]2C[C@@H](O)CN2C(=O)[C@@H](NC(=O)CCCCCN2CCCN(c3nccc(-c4noc([C@@]5(C)CCCc6sc(N)c(C#N)c65)n4)n3)[C@@H](C)C2)C(C)(C)C)cc1` [compound 3], for which, in assay [1], the Kd was 0.02 ± 0.003 µM. Besides, the DC50 was 0.751 µM at KRAS wild type (A375), above 1 µM on KRAS wild type (HEK293), 0.241 µM on KRAS^G12C and 0.0534 µM on KRAS^G12D. Also, the IC50 with GP2d was found to be 0.772 µM.
Compound `Cc1ncsc1-c1ccc(CNC(=O)[C@@H]2C[C@@H](O)CN2C(=O)[C@@H](NC(=O)COCCCN2CCCN(c3nccc(-c4noc([C@@]5(C)CCCc6sc(N)c(C#N)c65)n4)n3)[C@@H](C)C2)C(C)(C)C)cc1` [compound 2] gave an IC50 at VHL-NanoLuc of 5 µM. This compound also came in with a dissociation constant Kd in assay [1] of 0.015 ± 0.002 µM.

Values taken from doi:10.1101/2023.10.24.563163v2, “Targeting cancer with small molecule pan-KRAS degraders” (biorxiv, 2024).
